Assay results from patent publication US11459339B2, “Biaryl derivative, preparation method thereof and pharmaceutical application thereof” (Abbisko Therapeutics Co., Ltd., priority 2018, dated 2022).
pEC50, pIC50: −log10 of the molar value.

Experiments:
[1] = target: interaction between PD-1 and PD-L1 expressed on cell surfaces (Homo sapiens (Human), UniProt Q9NZQ7); assay: Jurkat reporter gene cellular assay (Jurkat/NF-κB-luc/PD1 cells cocultured with Raji-PD-L1 cells, OKT-3 stimulation); type: cell-based; conditions: NF-κB-luc reporter activation fold, 6 hrs; read-out: Cell Activity EC50
interaction between PD-1 and PD-L1 expressed on cell surfaces, sequence (Q9NZQ7 19-290): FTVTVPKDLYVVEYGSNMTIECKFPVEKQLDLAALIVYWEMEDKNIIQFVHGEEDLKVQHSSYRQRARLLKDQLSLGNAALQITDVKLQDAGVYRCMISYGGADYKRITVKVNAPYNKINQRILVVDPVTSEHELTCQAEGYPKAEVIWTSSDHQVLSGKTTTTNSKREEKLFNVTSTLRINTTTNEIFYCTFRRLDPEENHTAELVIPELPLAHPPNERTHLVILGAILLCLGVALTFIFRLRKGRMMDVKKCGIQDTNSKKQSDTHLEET
How it was run: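 EC50 comes from non-linear regression of activation fold (compound reading over DMSO reading) against concentration. Read-out was luciferase signal 6 h after OKT-3-stimulated coculture of PD-1/NF-κB-luc Jurkat cells with PD-L1-expressing Raji cells, 5*10^4 cells each per well.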

[2] = target: interaction between PD-1 and PD-L1 (Homo sapiens (Human), UniProt Q9NZQ7); assay: PD1-PDL1 HTRF binding activity test (Cisbio PD-1/PD-L1 binding assay kit); conditions: read-out: PD1-PDL1 HTRF Binding Activity IC50
interaction between PD-1 and PD-L1, sequence (Q9NZQ7 19-238): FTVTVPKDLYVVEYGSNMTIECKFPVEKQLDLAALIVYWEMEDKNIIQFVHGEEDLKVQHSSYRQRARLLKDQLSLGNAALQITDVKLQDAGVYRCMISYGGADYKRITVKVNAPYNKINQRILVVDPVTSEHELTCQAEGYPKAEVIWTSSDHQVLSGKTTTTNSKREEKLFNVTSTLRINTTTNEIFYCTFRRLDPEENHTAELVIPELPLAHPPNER

Row | pEC50 [1] | pIC50 [2] | SMILES
1 | 6.24 | 10.47 | COc1cc(C(=O)Nc2cccc(-c3cccc(NC(=O)c4cc(OC)c(CN[C@H]5C[C@@H](C(=O)O)C5)cn4)c3C)c2C)ncc1CN[C@H]1C[C@@H](C(=O)O)C1 [Example 60, (1s,1′s,3s,3′s)-3,3′-((((((2,2′-dimethyl-[1,1′-biphenyl]-3,3′-diyl)bis(azanediyl))bis(carbonyl))bis(4-methoxypyridine-6,3-diyl))bis(methylene))bis(azanediyl))bis (cyclobutane-1-carboxylic acid)]
2 | 5.34 | 9.60 | COc1cc(C(=O)Nc2cccc(-c3cccc(NC(=O)c4cc(OC)c(CN5CCOC[C@H]5C(=O)O)cn4)c3C)c2C)ncc1CN1CCOC[C@H]1C(=O)O [Example 63, (3S,3′S)-4,4′(((((2,2′-dimethyl-[1,1′-biphenyl]-3-3′-diyl)bis(azanediyl))bis (carbonyl))bis(4-methoxypyridine-6,3-diyl))bis(methylene))bis(morpholine-3-carboxylic acid)]
3 | 6.16 | 9.19 | COC(=O)CNCc1cnc(C(=O)Nc2cccc(-c3cccc(NC(=O)c4cc(OC)c(CNCC(=O)OC)cn4)c3C)c2C)cc1OC [Example 66]
4 | 6.46 | 9.29 | COc1cc(C(=O)Nc2cccc(-c3cccc(NC(=O)c4cc(OC)c(CNCC(=O)O)cn4)c3C)c2C)ncc1CNCC(=O)O [Example 67]
5 | 6.98 | 9.41 | COc1cc(C(=O)Nc2cccc(-c3cccc(NC(=O)c4cc(OC)c(CN[C@@H](CCO)C(=O)O)cn4)c3C)c2C)ncc1CN[C@@H](CCO)C(=O)O [Example 69]
6 | 6.09 | 9.54 | COc1cc(C(=O)Nc2cccc(-c3cccc(NC(=O)c4cc(OC)c(CN[C@H](CO)CC(=O)O)cn4)c3C)c2C)ncc1CN[C@H](CO)CC(=O)O [Example 73, (3S,3′S)-3,3′-((((((2,2′-dimethyl-[1,1′-biphenyl]-3,3′-diyl)bis(azanediyl))bis(carbonyl))bis (4-methoxypyridine-6,3-diyl))bis (methylene))bis(azanediyl))bis(4-hydroxybutanoic acid)]
7 | 6.53 | 9.39 | COC[C@@H](NCc1cnc(C(=O)Nc2cccc(-c3cccc(NC(=O)c4cc(OC)c(CN[C@H](COC)C(=O)O)cn4)c3C)c2C)cc1OC)C(=O)O [Example 77, (2R,2′R)-2,2′-((((((2,2′-dimethyl-[1,1′-biphenyl]-3,3′-diyl)bis(azanediyl))bis(carbonyl))bis(4-methoxypyridine-6,3-diyl))bis(methylene))bis (azanediyl))bis(3-methoxypropanoic acid)]
8 | 6.77 | 9.19 | COC[C@H](NCc1cnc(C(=O)Nc2cccc(-c3cccc(NC(=O)c4cc(OC)c(CN[C@@H](COC)C(=O)O)cn4)c3C)c2C)cc1OC)C(=O)O [Example 79, (2S,2′S)-2,2′-((((((2,2′-dimethyl-[1,1′-biphenyl]-3,3′-diyl)bis(azanediyl))bis(carbonyl))bis(4-methoxypyridine-6,3-diyl))bis(methylene))bis (azanediyl))bis(3-methoxypropanoic acid)]
9 | 6.05 | 9.37 | COc1cc(C(=O)Nc2cccc(-c3cccc(NC(=O)c4cc(OC)c(CNCC[S+](C)[O-])cn4)c3C)c2C)ncc1CNCC[S+](C)[O-] (stereo not shown) [Example 81, N,N'-(2,2′-dimethyl-[1,1′-biphenyl]-3,3′-diyl)bis(4-methoxy-5-(((2-(methylsulfinyl)ethyl)amino)methyl)picolinamide)]
10 | 6.25 | 8.72 | COC(=O)[C@H]1CCN(Cc2cnc(C(=O)Nc3cccc(-c4cccc(NC(=O)c5cc(OC)c(CN6CC[C@H](C(=O)OC)C6)cn5)c4C)c3C)cc2OC)C1 [Example 82, dimethyl 1,1′-(((((2,2′-dimethyl-[1,1-biphenyl]-3,3′-diyl)bis(azanediyl))bis(carbonyl))bis(4-methoxypyridine-6,3-diyl))bis(methylene))(3S,3′S)-bis(pyrrolidine-3-carboxylate)]
11 | 6.39 | 8.87 | COc1cc(C(=O)Nc2cccc(-c3cccc(NC(=O)c4cc(OC)c(CN[C@H](CO)C(N)=O)cn4)c3C)c2C)ncc1CN[C@H](CO)C(N)=O [Example 86, N,N′-(2,2′-dimethyl-[1,1′-biphenyl]-3,3′-diyl)bis(5-((((R)-1-amino-3-hydroxy-1-oxopropan-2-yl)amino)methyl)-4-methoxypicolinamide)]
12 | 6.10 | 8.97 | CCNC(=O)[C@@H](CO)NCc1cnc(C(=O)Nc2cccc(-c3cccc(NC(=O)c4cc(OC)c(CN[C@H](CO)C(=O)NCC)cn4)c3C)c2C)cc1OC [Example 87]

Continued, compound first:

Row | SMILES | pEC50 [1] | pIC50 [2]
13 | COc1cc(C(=O)Nc2cccc(-c3cccc(NC(=O)c4cc(OC)c(CN5CCC[C@H]5C(=O)O)cn4)c3C)c2C)ncc1CN1CCC[C@H]1C(=O)O [Example 61, (2′S)-(((((2,2′-dimethyl-[1,1′-biphenyl]-3,3′-diyl)bis(azanediyl))bis(carbonyl))bis(4-methoxypyridine-6,3-diyl))bis(methylene))di-L-proline] | 6.50 | 9.74
14 | COc1cc(C(=O)Nc2cccc(-c3cccc(NC(=O)c4cc(OC)c(CN5C[C@H](O)C[C@H]5C(=O)O)cn4)c3C)c2C)ncc1CN1C[C@H](O)C[C@H]1C(=O)O [Example 62, (2S,2′S,4R,4′R)-1,1′-(((((2,2′-dimethyl-[1,1′-biphenyl]-3,3′-diyl)bis(azanediyl))bis(carbonyl))bis (4-methoxypyridine-6,3-diyl))bis (methylene))bis(4-hydroxypyrrolidine-2-carboxylic acid)] | 6.19 | 9.60
15 | COc1cc(C(=O)Nc2cccc(-c3cccc(NC(=O)c4cc(OC)c(CN[C@H]5CCOC5=O)cn4)c3C)c2C)ncc1CN[C@H]1CCOC1=O [Example 68] | 6.58 | 9.51
16 | COc1cc(C(=O)Nc2cccc(-c3cccc(NC(=O)c4cc(OC)c(CN[C@@H]5CCOC5=O)cn4)c3C)c2C)ncc1CN[C@@H]1CCOC1=O [Example 70, N,N'-(2,2′-dimethyl-[1,1′-biphenyl]-3,3′-diyl)bis(4-methoxy-5-((((R)-2-oxotetrahydrofuran-3-yl)amino)methyl)picolinamide)] | 5.66 | 9.27
17 | COc1cc(C(=O)Nc2cccc(-c3cccc(NC(=O)c4cc(OC)c(CN[C@H](CCO)C(=O)O)cn4)c3C)c2C)ncc1CN[C@H](CCO)C(=O)O [Example 71] | 6.12 | 9.48
18 | COc1cc(C(=O)Nc2cccc(-c3cccc(NC(=O)c4cc(OC)c(CN[C@@H]5COC(=O)C5)cn4)c3C)c2C)ncc1CN[C@@H]1COC(=O)C1 [Example 72, N,N'-(2,2′-dimethyl-[1,1′-biphenyl]-3,3′-diyl)bis(4-methoxy-5-((((S)-5-oxotetrahydrofuran-3-yl)amino)methyl)picolinamide)] | 5.81 | 9.32
19 | COc1cc(C(=O)Nc2cccc(-c3cccc(NC(=O)c4cc(OC)c(CN[C@H]5COC(=O)C5)cn4)c3C)c2C)ncc1CN[C@H]1COC(=O)C1 [Example 74] | 6.52 | 9.85
20 | COc1cc(C(=O)Nc2cccc(-c3cccc(NC(=O)c4cc(OC)c(CN[C@@H](CO)CC(=O)O)cn4)c3C)c2C)ncc1CN[C@@H](CO)CC(=O)O [Example 75] | 6.11 | 9.44
21 | COC[C@@H](NCc1cnc(C(=O)Nc2cccc(-c3cccc(NC(=O)c4cc(OC)c(CN[C@H](COC)C(=O)OC)cn4)c3C)c2C)cc1OC)C(=O)OC [Example 76, dimethyl 2,2′-((((((2,2′-dimethyl-[1,1′-biphenyl]-3,3′-diyl)bis(azanediyl))bis(carbonyl))bis (4-methoxypyridine-6,3-diyl))bis(methylene))bis(azanediyl))(2R,2′R)-bis(3-methoxypropanoate)] | 5.51 | 8.11
22 | COC[C@H](NCc1cnc(C(=O)Nc2cccc(-c3cccc(NC(=O)c4cc(OC)c(CN[C@@H](COC)C(=O)OC)cn4)c3C)c2C)cc1OC)C(=O)OC [Example 78, dimethyl 2,2′-((((((2,2′-dimethyl-[1,1′-biphenyl]-3,3′-diyl)bis(azanediyl))bis(carbonyl))bis(4-methoxypyridine-6,3-diyl))bis(methylene))bis (azanediyl))(2S,2′S)-bis(3-methoxypropanoate)] | 5.54 | 7.96
23 | COc1cc(C(=O)Nc2cccc(-c3cccc(NC(=O)c4cc(OC)c(CNCCS(C)(=O)=O)cn4)c3C)c2C)ncc1CNCCS(C)(=O)=O [Example 80, N,N'-(2,2′-dimethyl-[1,1′-biphenyl]-3,3′-diyl)bis(4-methoxy-5-(((2-(methylsulfonyl)ethyl)amino)methyl)picolinamide)] | 5.43 | 10.09
24 | COc1cc(C(=O)Nc2cccc(-c3cccc(NC(=O)c4cc(OC)c(CN5CC[C@H](C(=O)O)C5)cn4)c3C)c2C)ncc1CN1CC[C@H](C(=O)O)C1 [Example 83, (3S,3′S)-1,1′-(((((2,2′-dimethyl-[1,1′-biphenyl]-3,3′-diyl)bis(azanediyl))bis(carbonyl))bis(4-methoxypyridine-6,3-diyl))bis(methylene))bis (pyrroidine-3-carboxylic acid)] | 6.51 | 8.98
25 | COC(=O)C1CCN(Cc2cnc(C(=O)Nc3cccc(-c4cccc(NC(=O)c5cc(OC)c(CN6CCC(C(=O)OC)CC6)cn5)c4C)c3C)cc2OC)CC1 [Example 84, dimethyl 1,1′-(((((2,2′-dimethyl-[1,1′-biphenyl]-3,3′-diyl)bis(azanediyl))bis(carbonyl))bis(4-methoxypyridine-6,3-diyl))bis(methylene))bis(piperidine-4-carboxylate)] | 6.22 | 8.87
26 | COc1cc(C(=O)Nc2cccc(-c3cccc(NC(=O)c4cc(OC)c(CN5CCC(C(=O)O)CC5)cn4)c3C)c2C)ncc1CN1CCC(C(=O)O)CC1 [Example 85, 1,1′-(((((2,2′-dimethyl-[1,1′-biphenyl]-3,3′-diyl)bis(azanediyl))bis(carbonyl))bis (4-methoxypyridine-6,3-diyl))bis(methylene))bis (piperidine-4-carboxylic acid)] | 6.47 | 9.35
